Test results reported in patent EP1330254B1, “TREATMENT OF CANCERS BY APLIDINE IN CONJUNCTION WITH CARNITINE OR ACETYLCARNITINE” (priority 2000, dated 2002).

Key:
[1] = L-carnitine as myoprotector in aplidine patients (study APL-A-003-98); type: in vivo, human
Procedure: More generally, the invention involves the use of a muscle protector in conjunction with aplidine therapy. We have found in particular that carnitine is beneficial in treating myotoxicity that is associated with chemotherapy with the experimental drug aplidine. […] When L-carnitine 4.5 g/day was added to the therapy (at doses of 1.5 g three times daily), or […] (at doses of […] 3 times daily) patients were able to tolerate doses of aplidine up to 6000 mcg/m 2 every second week. […] Therefore, muscle protectors such as L-carnitine is a useful myoprotector for patients being treated with aplidine or an aplidine analogue.
L-carnitine at a dose of 1.5 grams 3 times per day or 0.033 g/kg 3 times per day was started in all patients of study APL-A-003-98.
The dose may be decreased to manage the above effects.

[2] = test system: panel of 25 human tumor cell lines; assay: tumor protection by L-carnitine, cell line panel; type: cell-based; settings: initial results
Procedure: The possibility of tumor protection by L-carnitine was evaluated using a panel of 25 human tumor cell lines.

[3] = L-carnitine at the doses used in this study

For `C[N+](C)(C)C[C@H](O)CC(=O)[O-]` [L-carnitine], the “outcome in patients with prior skeletal muscle toxicity” value ([1]; 4 patients continuing aplidine, L-carnitine 1.5 grams 3 times per day or 0.033 g/kg 3 times per day) was “no skeletal muscle symptoms and just transient grade 1 CK increases”, the “outcome in patients on L-carnitine prophylaxis from the beginning” value ([1]; 11 patients) was “just an asymptomatic G1 increase in CK” and the only toxicity reported [1, 3] was “grade 1 abdominal discornfort and diarrhea”. For the same compound, the tolerability [1, 3] was “well tolerated”, the “increase of aplidine MTD” value ([1]; L-carnitine prophylaxis, 24 h every other week infusion study) was 33% and the “outcome after L-carnitine at reduced doses” value ([1]; two patients, grade 3 with weakness and grade 1 with asthenia) was “symptomatic increases in CK”. The “effect on the antitumor activity of aplidine” value [2] was “lack of effect”.
